Numbers after ± are expanded uncertainties.
How the values were obtained:
[1] = Crystal; DTA
[2] = Molar enthalpy of transition or fusion; conditions: Crystal; Adiabatic calorimetry

| Structure (SMILES) | Normal melting temperature [1] [°C] | Molar enthalpy of transition or fusion [2] [kcal/mol] |
| --- | --- | --- |
| COC(=O)C=Cc1ccc(O)cc1 [2-propenoic acid, 3-(4-hydroxyphenyl)-, methyl ester] | 137.56 ± 1.1 | 7.22 ± 0.43 |
| COC(=O)C=Cc1ccc(O)c(OC)c1 [methyl 3-(4-hydroxy-3-methoxyphenyl)-2-propenoate] | 62.56 ± 0.95 | 6.17 ± 0.43 |
| COC(=O)/C=C/c1cc(OC)c(O)c(OC)c1 [3,5-dimethoxy-4-hydroxy cinnamic acid methyl ester] | 88.64 ± 1.2 | 7.14 ± 0.669 |
